The assay concerns the target T1, human kiss1 receptor (GPR54) (Homo sapiens, UniProt Q969F8).
T1 construct: host or cells: NFAT-bla CHO-K1 cells (Chinese hamster ovary), purchased recombinant cell line
The assay can be described thus: Kiss1 receptor (GPR54) binding activity of agonists, FRET detection in NFAT-bla CHO-K1 cells. In kind it is cell-based.

Where [1] appears, read: GPR54, measured according to the method of effect Embodiment 1, preliminary data, read-out: Preliminary measurement data (GPR54) EC50.
The mark [2] stands for this setting: NFAT-bla CHO-K1 cells that express human kiss1 receptor (GPR54), FRET, cells cultured with compound for 4 hours, read-out: GPR54 EC50/nM.
[3] abbreviates: human kiss1 receptor (GPR54), NFAT-bla CHO-K1 cells, FRET, preliminary data, method of effect Embodiment 1, read-out: Preliminary measurement data (GPR54) EC50.

The text below walks through data of US11427615B2, “Peptide compound and application thereof, and composition containing peptide compound” (XDCEXPLORER (SHANGHAI) CO., LTD., priority 2017, dated 2022).

Where two headings read alike, the source gives them in different places. Non-standard residues stand in square brackets, D forms with d. Residues, ends and D or L forms follow the SMILES beside them. *: point of attachment. X8 = CCCCCCCCCCCCCCCCc1cn(CCOCCOCCOCCOCCOCCOCCOCCOCCC(=O)*)nn1; Ala(1-Me-3-pyridinium) = C[n+]1cccc(C[C@H](N)C(=O)O)c1; dPhe(2,4-Cl2) = N[C@H](Cc1ccc(Cl)cc1Cl)C(=O)O; dPhe(4-Cl) = N[C@H](Cc1ccc(Cl)cc1)C(=O)O; Phe(4-F) = N[C@@H](Cc1ccc(F)cc1)C(=O)O; Pro(4,4-F2) = O=C(O)[C@@H]1CC(F)(F)CN1; dAla(2-furyl) = N[C@H](Cc1ccco1)C(=O)O; dPhe(4-F) = N[C@H](Cc1ccc(F)cc1)C(=O)O; 2Nal = N[C@@H](Cc1ccc2ccccc2c1)C(=O)O; Arg(Me) = CNC(=N)NCCC[C@H](N)C(=O)O; Hyp = O=C(O)[C@@H]1C[C@@H](O)CN1; Pip = O=C(O)[C@@H]1CCCCN1; Ac6c = NC1(C(=O)O)CCCCC1; Aze = O=C(O)[C@@H]1CCN1; azaGly = NNC(=O)O

T1 sequence (Q969F8 whole entry): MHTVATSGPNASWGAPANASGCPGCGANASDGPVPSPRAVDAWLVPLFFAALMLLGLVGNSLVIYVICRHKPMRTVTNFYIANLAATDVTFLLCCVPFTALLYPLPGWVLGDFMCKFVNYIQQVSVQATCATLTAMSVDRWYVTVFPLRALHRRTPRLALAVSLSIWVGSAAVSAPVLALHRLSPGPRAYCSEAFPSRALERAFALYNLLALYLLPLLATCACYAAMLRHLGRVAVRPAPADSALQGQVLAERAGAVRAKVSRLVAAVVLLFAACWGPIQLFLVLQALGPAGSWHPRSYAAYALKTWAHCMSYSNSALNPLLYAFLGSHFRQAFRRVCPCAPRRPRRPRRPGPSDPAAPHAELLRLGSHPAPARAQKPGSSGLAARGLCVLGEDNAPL

On to `CNC(=N)NCCC[C@H](NC(=O)[C@H](CC(C)C)NC(=O)[C@@H]1CCN1C(=O)[C@H](Cc1ccccc1)NC(=O)[C@@H](NC(=O)[C@H](CC(N)=O)NC(=O)[C@@H]1CCCCN1C(=O)[C@@H](Cc1ccc(F)cc1)NC(C)=O)[C@@H](C)O)C(=O)N[C@@H](Cc1c[nH]c2ccccc12)C(N)=O` [YA-211, Ac-[D-Phe(4-F)]-(S-Pip)-Asn-Thr-Phe-Aze-Leu-Arg(Me)-Trp-NH2] (Ac-[dPhe(4-F)][Pip]NTF[Aze]L[Arg(Me)]W-NH2), for which, under setting [1], the EC50 came to 1.13 nM.

`CNC(=N)NCCC[C@H](NC(=O)[C@H](CC(C)C)NC(=O)NNC(=O)[C@H](Cc1ccccc1)NC(=O)[C@@H](NC(=O)[C@H](CC(N)=O)NC(=O)[C@@H]1C[C@@H](O)CN1C(=O)[C@H](Cc1ccc[n+](C)c1)NC(C)=O)[C@@H](C)O)C(=O)N[C@@H](Cc1c[nH]c2ccccc12)C(N)=O` [YA-239, Ac-[(S)-3-(2-amino-2-carboxyethyl)-1-methylpyridinium]-Hyp-Asn-Thr-Phe-azaGly-Leu-Arg(Me)-Trp-NH2] (Ac-[Ala(1-Me-3-pyridinium)][Hyp]NTF[azaGly]L[Arg(Me)]W-NH2): the EC50 under setting [1] amounted to 1 nM.

`CNC(=N)NCCC[C@H](NC(=O)[C@H](CC(C)C)NC(=O)NNC(=O)[C@H](Cc1ccccc1)NC(=O)[C@@H](NC(=O)[C@H](CC(N)=O)NC(=O)[C@@H](Cc1ccco1)NC(=O)[C@@H](Cc1ccc(O)cc1)NC(C)=O)[C@@H](C)O)C(=O)N[C@@H](Cc1c[nH]c2ccccc12)C(N)=O` [YA-165, Ac-D-Tyr-(D-2Fua)-Asn-Thr-Phe-azaGly-Leu-Arg(Me)-Trp-NH2] (Ac-[dY][dAla(2-furyl)]NTF[azaGly]L[Arg(Me)]W-NH2): under setting [1], the EC50 amounted to 0.025 nM.

Turning to `CNC(=N)NCCC[C@H](NC(=O)[C@H](CC(C)C)NC(=O)NNC(=O)[C@H](Cc1ccccc1)NC(=O)[C@@H](NC(=O)[C@H](CC(N)=O)NC(=O)[C@@H]1C[C@@H](O)CN1C(=O)[C@@H](Cc1ccc(Cl)cc1)NC(C)=O)[C@@H](C)O)C(=O)N[C@@H](Cc1c[nH]c2ccccc12)C(N)=O` [YA-214, Ac-[D-Phe(4-Cl)]-Hyp-Asn-Thr-Phe-azaGly-Leu-Arg(Me)-Trp-NH2] (Ac-[dPhe(4-Cl)][Hyp]NTF[azaGly]L[Arg(Me)]W-NH2), the EC50 under setting [1] was determined as 0.083 nM.

As to `CNC(=N)NCCC[C@H](NC(=O)[C@H](CC(C)C)NC(=O)C1(NC(=O)[C@H](Cc2ccccc2)NC(=O)[C@@H](NC(=O)[C@H](CC(N)=O)NC(=O)[C@@H]2CC(F)(F)CN2C(=O)[C@@H](Cc2ccc(Cl)cc2Cl)NC(C)=O)[C@@H](C)O)CCCCC1)C(=O)N[C@@H](Cc1c[nH]c2ccccc12)C(N)=O` [YA-248, Ac-[D-Phe(2,4-diCl)]-Pro(diF)-Asn-Thr-Phe-A6c-Leu-Arg(Me)-Trp-NH2] (Ac-[dPhe(2,4-Cl2)][Pro(4,4-F2)]NTF[Ac6c]L[Arg(Me)]W-NH2), under setting [1], the EC50 was determined as 0.78 nM.

Take `CCCCCCCCCCCCCCCCc1cn(CCOCCOCCOCCOCCOCCOCCOCCOCCC(=O)NCC(=O)NCC(=O)N[C@H](Cc2ccc(O)cc2)C(=O)N2C[C@H](O)C[C@H]2C(=O)N[C@@H](CC(N)=O)C(=O)N[C@H](C(=O)N[C@@H](Cc2ccccc2)C(=O)NNC(=O)N[C@@H](CC(C)C)C(=O)N[C@@H](CCCNC(=N)NC)C(=O)N[C@@H](Cc2c[nH]c3ccccc23)C(N)=O)[C@@H](C)O)nn1` [YA-367, M10 [Hexadecyl-1,2,3-Triazole-PEG8, G43, G44, D-Tyr45, Hyp46, des47, T49, AzaGly51, R(Me)53, W54]] (X8-GG[dY][Hyp]NTF[azaGly]L[Arg(Me)]W-NH2): the EC50 under setting [1] was 0.103 nM.

In the case of `CNC(=N)NCCC[C@H](NC(=O)[C@H](CC(C)C)NC(=O)C1(NC(=O)[C@H](Cc2ccccc2)NC(=O)[C@@H](NC(=O)[C@H](CC(N)=O)NC(=O)C2(NC(=O)[C@@H](Cc3ccc(O)cc3)NC(C)=O)CCCCC2)[C@@H](C)O)CCCCC1)C(=O)N[C@@H](Cc1c[nH]c2ccccc12)C(N)=O` [YA-243, Ac-D-Tyr-A6c-Asn-Thr-Phe-A6c-Leu-Arg(Me)-Trp-NH2] (Ac-[dY][Ac6c]NTF[Ac6c]L[Arg(Me)]W-NH2), the EC50 under setting [2] is 0.69 nM.

`CNC(=N)NCCC[C@H](NC(=O)[C@H](CC(C)C)NC(=O)NNC(=O)[C@H](Cc1ccccc1)NC(=O)[C@@H](NC(=O)[C@H](CC(N)=O)NC(=O)[C@@H]1C[C@@H](O)CN1C(=O)[C@@H](Cc1ccc(O)cc1)NC(C)=O)[C@@H](C)O)C(=O)N[C@@H](Cc1ccc2ccccc2c1)C(N)=O` [YA-81, Ac-D-Tyr-Hyp-Asn-Thr-Phe-azaGly-Leu-Arg(Me)-2Nal-NH2] (Ac-[dY][Hyp]NTF[azaGly]L[Arg(Me)][2Nal]-NH2): the EC50 under setting [1] was found to be 0.011 nM.

Turning to `CC(=O)N[C@@H](Cc1ccc(O)cc1)C(=O)N[C@@H](CC(N)=O)C(=O)N[C@@H](Cc1c[nH]c2ccccc12)C(=O)N[C@@H](CC(N)=O)C(=O)N[C@@H](CO)C(=O)N[C@@H](Cc1ccccc1)C(=O)NCC(=O)N[C@@H](CC(C)C)C(=O)N[C@@H](CCCNC(=N)N)C(=O)N[C@@H](Cc1ccccc1)C(N)=O` [YA-2, Ac-Tyr-Asn-Trp-Asn-Ser-Phe-Gly-Leu-Arg-Phe-NH2], the EC50 runs as follows: under setting [1], 10 nM; under setting [2], 2.11 nM.

Turning to `CNC(=N)NCCC[C@H](NC(=O)[C@H](CC(C)C)NC(=O)C1(NC(=O)[C@H](Cc2ccccc2)NC(=O)[C@@H](NC(=O)[C@H](CC(N)=O)NC(=O)C2(NC(=O)[C@@H](Cc3ccco3)NC(C)=O)CCCCC2)[C@@H](C)O)CCCCC1)C(=O)N[C@@H](Cc1c[nH]c2ccccc12)C(N)=O` [YA-272, Ac-3-(2-furyl)-D-alanine-A6c-Asn-Thr-Phe-A6c-Leu-Arg(Me)-Trp-NH2] (Ac-[dAla(2-furyl)][Ac6c]NTF[Ac6c]L[Arg(Me)]W-NH2), under setting [3], the EC50 was 7.95 nM.

Consider `CNC(=N)NCCC[C@H](NC(=O)[C@H](CC(C)C)NC(=O)NNC(=O)[C@H](Cc1ccccc1)NC(=O)[C@@H](NC(=O)[C@H](CC(N)=O)NC(=O)[C@@H]1CCCCN1C(=O)[C@@H](Cc1ccc(O)cc1)NC(C)=O)[C@@H](C)O)C(=O)N[C@@H](Cc1c[nH]c2ccccc12)C(N)=O` [YA-85, Ac-D-Tyr-(S-Pip)-Asn-Thr-Phe-azaGly-Leu-Arg(Me)-Trp-NH2] (Ac-[dY][Pip]NTF[azaGly]L[Arg(Me)]W-NH2), for which, under setting [1], the EC50 stood at 0.026 nM.

In the case of `CNC(=N)NCCC[C@H](NC(=O)[C@H](CC(C)C)NC(=O)C1(NC(=O)[C@H](Cc2ccccc2)NC(=O)[C@@H](NC(=O)[C@H](CC(N)=O)NC(=O)C2(NC(=O)[C@@H](Cc3ccc(F)cc3)NC(C)=O)CCCCC2)[C@@H](C)O)CCCCC1)C(=O)N[C@@H](Cc1c[nH]c2ccccc12)C(N)=O` [YA-244, Ac-[D-Phe(4-F)]-A6c-Asn-Thr-Phe-A6c-Leu-Arg(Me)-Trp-NH2] (Ac-[dPhe(4-F)][Ac6c]NTF[Ac6c]L[Arg(Me)]W-NH2; C-terminus assumed), the EC50 under setting [3] stood at 1.17 nM.

Regarding `CNC(=N)NCCC[C@H](NC(=O)[C@H](CC(C)C)NC(=O)C1(NC(=O)[C@H](Cc2ccccc2)NC(=O)[C@@H](NC(=O)[C@H](CC(N)=O)NC(=O)[C@@H]2C[C@@H](O)CN2C(=O)[C@H](Cc2ccc(F)cc2)NC(C)=O)[C@@H](C)O)CCCCC1)C(=O)N[C@@H](Cc1c[nH]c2ccccc12)C(N)=O` [YA-198, Ac-Phe(4-F)-Hyp-Asn-Thr-Phe-A6c-Leu-Arg(Me)-Trp-NH2] (Ac-[Phe(4-F)][Hyp]NTF[Ac6c]L[Arg(Me)]W-NH2), under setting [1], the EC50 came to 382 nM.
